The target of one data set is human 5-HT2A receptor (Homo sapiens (Human), UniProt P28223). The experiment in a line: Radioligand binding ([3H]-ketanserin) to cloned receptors expressed in HEK-293 EBNA cells. To be noted: HEK293 EBNA cell membranes expressing human 5-HT2A. Summed up:
(§1)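 Membranes from transiently transfected HEK293 EBNA cells incubated 1 h at RT with ten compound concentrations (10 μM–0.1 nM). D2/D3: [3H]-spiperone ~0.7/0.5 nM, Tris–NaCl–Mg/Ca buffer pH 7.4; 5-HT2A: [3H]-ketanserin 1.1 nM, Tris–MgCl2–EGTA pH 7.4.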

Another data set has as its target human D2 receptor (Homo sapiens (Human), UniProt P14416). The data set can be described thus: Radioligand binding ([3H]-spiperone) to cloned receptors expressed in HEK-293 EBNA cells. Conditions: HEK293 EBNA cell membranes expressing human D2. Summed up:
as §1

The next data set has as its target human D3 receptor (Homo sapiens (Human), UniProt P35462). Described as above. To be noted: HEK293 EBNA cell membranes expressing human D3. Summed up: as §1

The structures appear in SMILES notation.

Sequence of human D2 receptor (P14416 whole entry): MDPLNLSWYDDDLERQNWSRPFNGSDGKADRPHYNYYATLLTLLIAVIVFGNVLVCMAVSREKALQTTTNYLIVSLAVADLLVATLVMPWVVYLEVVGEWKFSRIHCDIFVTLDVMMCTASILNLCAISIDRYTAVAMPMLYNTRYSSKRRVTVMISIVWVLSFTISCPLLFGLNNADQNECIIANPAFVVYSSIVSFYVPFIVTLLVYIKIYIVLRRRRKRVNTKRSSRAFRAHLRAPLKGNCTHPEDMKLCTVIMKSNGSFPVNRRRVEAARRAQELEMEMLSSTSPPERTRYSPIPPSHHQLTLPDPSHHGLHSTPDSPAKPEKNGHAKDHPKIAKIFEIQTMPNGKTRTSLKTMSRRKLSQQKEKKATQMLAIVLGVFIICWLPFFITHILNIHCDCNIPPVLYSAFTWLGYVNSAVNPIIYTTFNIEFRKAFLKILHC
Sequence of human D3 receptor (P35462 whole entry): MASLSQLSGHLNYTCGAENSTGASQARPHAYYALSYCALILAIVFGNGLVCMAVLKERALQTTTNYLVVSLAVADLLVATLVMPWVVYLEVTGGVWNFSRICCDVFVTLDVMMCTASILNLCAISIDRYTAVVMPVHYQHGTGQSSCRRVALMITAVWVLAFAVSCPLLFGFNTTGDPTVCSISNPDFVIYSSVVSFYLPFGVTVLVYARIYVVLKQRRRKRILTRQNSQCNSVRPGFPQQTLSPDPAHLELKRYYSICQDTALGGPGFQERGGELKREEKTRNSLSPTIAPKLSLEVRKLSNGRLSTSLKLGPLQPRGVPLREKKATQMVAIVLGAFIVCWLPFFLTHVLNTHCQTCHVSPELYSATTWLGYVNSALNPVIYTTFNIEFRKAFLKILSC
Sequence of human 5-HT2A receptor (P28223 whole entry): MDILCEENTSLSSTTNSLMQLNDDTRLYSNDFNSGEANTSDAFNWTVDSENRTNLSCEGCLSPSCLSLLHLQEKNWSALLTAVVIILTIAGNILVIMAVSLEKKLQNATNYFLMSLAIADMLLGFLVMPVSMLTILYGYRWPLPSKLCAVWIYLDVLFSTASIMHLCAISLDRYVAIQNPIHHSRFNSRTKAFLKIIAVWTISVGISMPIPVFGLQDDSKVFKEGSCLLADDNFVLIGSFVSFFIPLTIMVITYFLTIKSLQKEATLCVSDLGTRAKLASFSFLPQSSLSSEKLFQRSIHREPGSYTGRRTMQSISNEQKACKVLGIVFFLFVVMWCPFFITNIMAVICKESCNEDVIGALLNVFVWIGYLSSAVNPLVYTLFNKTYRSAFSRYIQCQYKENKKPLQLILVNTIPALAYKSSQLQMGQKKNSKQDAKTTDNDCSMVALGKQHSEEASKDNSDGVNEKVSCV

`CC(C)CCC(=O)N[C@H]1CC[C@H](CCN2CCC(c3cccc4c3CCO4)CC2)CC1` [Example 75, 4-Methyl-pentanoic acid trans-(4-{2-[4-(2,3-dihydro-benzofuran-4-yl)-piperidin-1-yl]-ethyl}-cyclohexyl)-amide] had a melting point of 188 °C. Also, the Ki on human 5-HT2A receptor was determined as 72.9 nM. Besides, the Ki on human D2 receptor was found to be 1070 nM. The Ki at human D3 receptor was found to be 9.97 nM.

`CCCCC(=O)N[C@H]1CC[C@H](CCN2CCC(c3cccc4c3CCO4)CC2)CC1` [Example 76, Pentanoic acid trans-(4-{2-[4-(2,3-dihydro-benzofuran-4-yl)-piperidin-1-yl]-ethyl}-cyclohexyl)-amide]: the melting point is 186 °C. For the same compound, the Ki on human 5-HT2A receptor amounted to 103 nM. Also, on human D2 receptor, the Ki stood at 411 nM. In addition, at human D3 receptor, the Ki is 4.57 nM.

In the case of `O=C(N[C@H]1CC[C@H](CCN2CCC(c3cccc4c3CCO4)CC2)CC1)c1ccc(N2CCS(=O)(=O)CC2)cc1` [Example 77, trans-N-(4-{2-[4-(2,3-Dihydro-benzofuran-4-yl)-piperidin-1-yl]-ethyl}-cyclohexyl)-4-(1,1-dioxo-1λ6-thiomorpholin-4-yl)-benzamide], the melting point is 282 °C. The Ki at human 5-HT2A receptor stood at 33 nM. Besides, the Ki on human D2 receptor is 329 nM. Also, on human D3 receptor, the Ki turned out to be 5.62 nM.

Compound `O=C(N[C@H]1CC[C@H](CCN2CCC(c3cccc4c3CCO4)CC2)CC1)c1ccc2ncccc2c1` [Example 78, Quinoline-6-carboxylic acid trans-(4-{2-[4-(2,3-dihydro-benzofuran-4-yl)-piperidin-1-yl]-ethyl}-cyclohexyl)-amide] registered a melting point of 238 °C. For the same compound, the Ki on human 5-HT2A receptor was 30.7 nM. Moreover, on human D2 receptor, the inhibitory constant (Ki) is 3250 nM. For the same compound, the Ki on human D3 receptor was 4.35 nM.

`O=C(N[C@H]1CC[C@H](CCN2CCC(c3cccc4c3CCO4)CC2)CC1)c1ccc2c(c1)OCO2` [Example 79, Benzo[1,3]dioxole-5-carboxylic acid trans-(4-{2-[4-(2,3-dihydro-benzofuran-4-yl)-piperidin-1-yl]-ethyl}-cyclohexyl)-amide] displayed a melting point of 233 °C. In addition, the inhibitory constant (Ki) at human 5-HT2A receptor was found to be 23 nM. The Ki at human D2 receptor turned out to be 809 nM. In addition, on human D3 receptor, the Ki worked out at 3.5 nM.

For the compound `O=C(CC1COC1)N[C@H]1CC[C@H](CCN2CCC(c3cccc4c3CCO4)CC2)CC1` [Example 80, trans-N-(4-{2-[4-(2,3-Dihydro-benzofuran-4-yl)-piperidin-1-yl]-ethyl}-cyclohexyl)-2-oxetan-3-yl-acetamide], the melting point is 197 °C. Further, the Ki on human 5-HT2A receptor came out at 55.5 nM. Moreover, the Ki at human D2 receptor was determined as 196 nM. Also, on human D3 receptor, the Ki was found to be 4.27 nM.

Compound `CC[C@@H](O)CC(=O)N[C@H]1CC[C@H](CCN2CCC(c3cccc4c3CCO4)CC2)CC1` [Example 81, (R)-3-Hydroxy-pentanoic acid trans-(4-{2-[4-(2,3-dihydro-benzofuran-4-yl)-piperidin-1-yl]-ethyl}-cyclohexyl)-amide] registered a melting point of 201 °C. Further, on human 5-HT2A receptor, the Ki amounted to 123 nM. In addition, on human D2 receptor, the Ki was determined as 356 nM. Also, at human D3 receptor, the Ki stood at 10 nM.

Turning to `COC(CC(=O)N[C@H]1CC[C@H](CCN2CCC(c3cccc4c3CCO4)CC2)CC1)OC` [Example 82, trans-N-(4-{2-[4-(2,3-Dihydro-benzofuran-4-yl)-piperidin-1-yl]ethyl}-cyclohexyl)-3,3-dimethoxy-propionamide], the melting point came to 240 °C. Moreover, the Ki at human 5-HT2A receptor was 69.9 nM. For the same compound, the Ki at human D2 receptor was 366 nM. Moreover, the Ki at human D3 receptor was determined as 4.78 nM.

`CN(C)C(=O)N[C@H]1CC[C@H](CCN2CCC(c3cccc4c3CCO4)CC2)CC1` [Example 83, trans-3-(4-{2-[4-(2,3-Dihydro-benzofuran-4-yl)-piperidin-1-yl]-ethyl}-cyclohexyl)-1,1-dimethyl-urea] displayed a melting point of 260 °C. Further, the Ki on human 5-HT2A receptor was 121 nM. Also, the Ki at human D2 receptor is 69.9 nM. In addition, the Ki on human D3 receptor amounted to 44.2 nM.

`CC(C)=CC(=O)N[C@H]1CC[C@H](CCN2CCC(c3cccc4c3CCO4)CC2)CC1` [Example 84, 3-Methyl-but-2-enoic acid trans-(4-{2-[4-(2,3-dihydro-benzofuran-4-yl)-piperidin-1-yl]-ethyl}-cyclohexyl)-amide] registered a melting point of 177 °C. Also, on human 5-HT2A receptor, the Ki was determined as 59.8 nM. Further, the Ki on human D2 receptor was found to be 73.9 nM. Moreover, the Ki at human D3 receptor turned out to be 6.36 nM.

With `C/C=C/CC(=O)N[C@H]1CC[C@H](CCN2CCC(c3cccc4c3CCO4)CC2)CC1` [Example 85, (E)-Pent-3-enoic acid trans-(4-{2-[4-(2,3-dihydro-benzofuran-4-yl)-piperidin-1-yl]-ethyl}-cyclohexyl)-amide], the melting point was determined as 196 °C. Also, the Ki at human 5-HT2A receptor worked out at 77.3 nM. Further, at human D2 receptor, the Ki was found to be 438 nM. For the same compound, the inhibition constant (Ki) on human D3 receptor amounted to 5.79 nM.

In turn, `CC#CC(=O)N[C@H]1CC[C@H](CCN2CCC(c3cccc4c3CCO4)CC2)CC1` [Example 86, But-2-ynoic acid trans-(4-{2-[4-(2,3-dihydro-benzofuran-4-yl)-piperidin-1-yl]-ethyl}-cyclohexyl)-amide] gave a melting point of 195 °C. Also, the Ki on human 5-HT2A receptor is 45.9 nM. In addition, the Ki at human D2 receptor worked out at 118 nM. Also, the Ki on human D3 receptor is 7.3 nM.

`O=CN[C@H]1CC[C@H](CCN2CCC(c3cccc4c3CCO4)CC2)CC1` [Example 87, trans-N-(4-{2-[4-(2,3-Dihydro-benzofuran-4-yl)-piperidin-1-yl]-ethyl}-cyclohexyl)-formamide]: the melting point was determined as 142 °C. Also, the Ki on human 5-HT2A receptor came to 107 nM. Also, the Ki at human D2 receptor worked out at 167 nM. Moreover, the Ki at human D3 receptor stood at 11.5 nM.

The compound `CC(C)(C)Oc1ccc(C(=O)N[C@H]2CC[C@H](CCN3CCC(c4cccc5c4CCO5)CC3)CC2)cc1` [Example 88, trans-4-tert-Butoxy-N-(4-{2-[4-(2,3-dihydro-benzofuran-4-yl)-piperidin-1-yl]-ethyl}-cyclohexyl)-benzamide] came in with a melting point of 216 °C. For the same compound, the Ki on human 5-HT2A receptor worked out at 42.8 nM. Also, the “D2 Ki” value on human D2 receptor was “inactive”. In addition, the Ki on human D3 receptor came out at 22.2 nM.

`O=C(N[C@H]1CC[C@H](CCN2CCC(c3cccc4c3CCO4)CC2)CC1)c1ccc(Cl)cc1Cl` [Example 89, trans-2,4-Dichloro-N-(4-{2-[4-(2,3-dihydro-benzofuran-4-yl)-piperidin-1-yl]-ethyl}-cyclohexyl)-benzamide] displayed a melting point of 188 °C. Besides, the Ki at human 5-HT2A receptor was 31.5 nM. The Ki on human D2 receptor was determined as 234 nM. Besides, on human D3 receptor, the Ki was found to be 8.28 nM.

Consider `O=C(N[C@H]1CC[C@H](CCN2CCC(c3cccc4c3CCO4)CC2)CC1)c1ccc(-n2cccc2)cc1` [Example 90, trans-N-(4-{2-[4-(2,3-Dihydro-benzofuran-4-yl)-piperidin-1-yl]-ethyl}-cyclohexyl)-4-pyrrol-1-yl-benzamide], for which the melting point was found to be 228 °C. On human 5-HT2A receptor, the Ki is 30.4 nM. Further, the Ki on human D2 receptor is 85.1 nM. On human D3 receptor, the Ki was 10.5 nM.

Turning to `O=C(N[C@H]1CC[C@H](CCN2CCC(c3cccc4c3CCO4)CC2)CC1)c1ccc(-c2ccccc2)cc1` [Example 91, Biphenyl-4-carboxylic acid trans-(4-{2-[4-(2,3-dihydro-benzofuran-4-yl)-piperidin-1-yl]-ethyl}-cyclohexyl)-amide], the melting point was found to be 241 °C. Besides, the Ki at human 5-HT2A receptor is 28.1 nM. For the same compound, the Ki on human D2 receptor worked out at 501 nM. Moreover, at human D3 receptor, the Ki was determined as 7.81 nM.

(Values after patent US8877778B2, “Benzofurane compounds” (Hoffmann-La Roche Inc., priority 2010, dated 2014).)
